Among the data in PubChem BioAssay (NCI) are TGI, GI50 and outcome values, retold here.

Among the test systems are DMS 114 small cell lung; DMS 273 small cell lung; XF 498 CNS; HOP-18 NSCLC; T-47D breast; BT-549 breast; NCI/ADR-RES ovarian; MDA-N; HS 578T breast.
Common to all, as to assay: inhibition of tumour cell growth, NCI panel, 48 h

Converted amounts (≈) assume the structure as drawn. “And” between values parts separate entries of the source, which are not always exact repeats. Identical values can stand only once.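 Tested at 5 concentrations; 48 h exposure; 96-well plates; endpoints linearly interpolated, else capped at highest concentration. GI50 marks 50% less growth. TGI marks complete inhibition of growth.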 The source made the active and inactive calls. Cut-off read from the data, not from the text of the source: active = GI50 below about 0.43 µM; inactive = the rest. Some results are limits rather than exact numbers.

As to `CCc1ccc(Cc2ccc(CC)c(NC(=O)C(=O)Cc3nc4ccccc4nc3C)c2CC)c(CC)c1NC(=O)C(=O)Cc1nc2ccccc2nc1C`, in the assay on DMS 114 small cell lung, the TGI was more than 100 µM.

With `CN(C)C1(C#N)CCC2(CC1)OCCO2`, the TGI in the assay on DMS 273 small cell lung is more than 100 µM.

Regarding `COCCNC(=O)C1C(=O)N(CCOC)C(=O)/C1=N/N` (configuration not stated), the TGI with DMS 273 small cell lung and with XF 498 CNS was more than 100 µM in each case.

For the compound `CCCOC(=O)C1CCC(=O)N1C(=O)C(Cl)Cl` (configuration not stated), the TGI with DMS 114 small cell lung, with DMS 273 small cell lung, in the assay with XF 498 CNS and with HOP-18 NSCLC was more than 100 µM each time.

Turning to `O=C(CC(O)(c1ccccc1)c1ccc(Cl)cc1)NC(=O)c1ccccc1O` (configuration not stated), the results for the TGI with DMS 114 small cell lung, in the assay with DMS 273 small cell lung and with HOP-18 NSCLC were 31.5 µM, 39 µM and 8.97 µM, respectively.

Consider `CC/C(=C(\c1ccccc1)c1ccc(OCCN(C)C)cc1)c1ccccc1`, for which the GI50 in the assay on T-47D breast is 0.805 µM; with BT-549 breast it was 6.8 µM; in the assay with NCI/ADR-RES ovarian, 2.86 µM; with MDA-N, > 25 µM and 6.53 µM. For the same compound, in the assay with MDA-N, the TGI is > 25 µM and 8.31 µM and 9.59 µM.

Regarding `NC(=O)C/C=C/CC(N)=O`, the TGI in the assay with T-47D breast, with BT-549 breast, in the assay with NCI/ADR-RES ovarian, in the assay with HS 578T breast and with MDA-N was more than 100 µM throughout.

In the case of `[N-]=[N+]=Nc1ccc(S(=O)(=O)Oc2cc(OS(=O)(=O)c3ccc(N=[N+]=[N-])cc3)cc(OS(=O)(=O)c3ccc(N=[N+]=[N-])cc3)c2)cc1`, the TGI in the assay with DMS 114 small cell lung, in the assay with DMS 273 small cell lung, in the assay with XF 498 CNS and with HOP-18 NSCLC was more than 100 µM in each case.

In the case of `COc1ccc(NC(=O)CC/C(CC(=O)c2ccco2)=N/Nc2ccc([N+](=O)[O-])cc2[N+](=O)[O-])cc1`, the TGI was 69.6 µM in the assay with DMS 114 small cell lung, more than 100 µM in the assay with DMS 273 small cell lung, 81.4 µM in the assay with XF 498 CNS and more than 100 µM in the assay on HOP-18 NSCLC.

For `O=c1c(Cl)nsnc1Cl`, the TGI in the assay on T-47D breast was more than 31.6 µM; in the assay on NCI/ADR-RES ovarian, more than 100 µM; in the assay with HS 578T breast it was 78.9 µM; with MDA-N it was 36.9 µM.

For the compound `COc1c(O)c2ccccc2c2cc(O)ccc12`, the TGI with DMS 114 small cell lung turned out to be 6.03 µM; with DMS 273 small cell lung, 20.5 µM; with T-47D breast, 38.4 µM; with XF 498 CNS it was 5.13 µM; in the assay on BT-549 breast, 7.04 µM; in the assay on NCI/ADR-RES ovarian, 29.5 µM. Besides, the TGI was 3.72 µM with HOP-18 NSCLC, more than 58.9 µM with HS 578T breast and 2.57 µM in the assay with MDA-N.

`CC(=O)OC1COC(N2C(=O)C(=O)c3c(C)cc(Cl)nc32)C(OC(C)=O)C1OC(C)=O` (configuration not stated): the TGI with DMS 114 small cell lung, in the assay on DMS 273 small cell lung, in the assay on XF 498 CNS and in the assay with HOP-18 NSCLC was more than 100 µM each time.

With `COC1OC(OC)C2C(c3c(C)cc(C)cc3C)=NOC12` (configuration not stated), the TGI in the assay with DMS 273 small cell lung, in the assay on XF 498 CNS and in the assay with HOP-18 NSCLC was more than 100 µM each time.

Consider `C1=C[C@@H]2c3ccc4cnccc4c3NC[C@@H]2C1`, for which the TGI in the assay on T-47D breast, in the assay on BT-549 breast, with NCI/ADR-RES ovarian, in the assay with HS 578T breast and with MDA-N was more than 100 µM throughout.

On to `COC(=O)C1=Cc2cc3c(cc2[C@H](c2ccc4c(c2)OCO4)C1C(=O)OC)OCO3` (some centres not stated), for which the TGI with DMS 114 small cell lung, in the assay on DMS 273 small cell lung, with XF 498 CNS and in the assay with HOP-18 NSCLC was more than 100 µM throughout.

Take `COc1ccc(C(=O)O/N=C2\CCCC\C2=C/c2ccccc2)cc1`: the TGI was more than 100 µM in the assay with DMS 114 small cell lung, more than 100 µM with DMS 273 small cell lung, 89.2 µM with XF 498 CNS and more than 100 µM in the assay on HOP-18 NSCLC.

As to `COC1CCC(=C2C(=O)OC(C)(C)OC2=O)N1` (configuration not stated), the TGI in the assay with DMS 114 small cell lung, with DMS 273 small cell lung, in the assay on XF 498 CNS and in the assay on HOP-18 NSCLC was more than 100 µM throughout.

Regarding `COC(=O)C(=O)C(C#N)c1cccc2ccccc12` (configuration not stated), the TGI in the assay on DMS 114 small cell lung, with DMS 273 small cell lung, in the assay with XF 498 CNS and in the assay with HOP-18 NSCLC was more than 100 µM in each case.

With `CCCCN(CCCC)C(=Nc1ccccc1)N(CCCC)CCCC`, the TGI with DMS 114 small cell lung was found to be 4.99 µM; with DMS 273 small cell lung, 17.1 µM; in the assay with XF 498 CNS, 5.95 µM; in the assay with HOP-18 NSCLC, 6.39 µM.

On to `CCN(CC)CCN(C)CC(C)(C)C(=O)/C=C/c1ccccc1`, for which the TGI was 21.4 µM in the assay on DMS 114 small cell lung, 26.1 µM in the assay with DMS 273 small cell lung, 24.8 µM with XF 498 CNS and 30.6 µM with HOP-18 NSCLC.

For `CCCCNC(=S)Nn1c(-c2ccccc2)nc2ccccc2c1=O`, the TGI in the assay on DMS 114 small cell lung, in the assay on DMS 273 small cell lung and in the assay on HOP-18 NSCLC was more than 100 µM in each case.

For `O=C(Nc1ccc(Cl)cc1)NS(=O)(=O)c1ccc2c(c1)CCC2`, the TGI with DMS 114 small cell lung is more than 100 µM; in the assay on DMS 273 small cell lung, > 100 µM and 39.6 µg/mL; in the assay on T-47D breast it was 74.6 µM; in the assay with XF 498 CNS, more than 100 µM; with BT-549 breast, more than 100 µM; with HOP-18 NSCLC, more than 100 µM. The TGI with HS 578T breast was 13.1 µM; in the assay with MDA-N it was more than 100 µM. Also, the GI50 in the assay on DMS 273 small cell lung is 17.6 µg/mL (≈ 50.3 µM). In addition, the outcome in the assay with XF 498 CNS and in the assay with HOP-18 NSCLC was inactive.

For `Cc1ccc(S(=O)(=O)NCCCN(CCCNS(=O)(=O)c2ccc(C)cc2)S(=O)(=O)c2ccc(C)cc2)cc1`, the TGI with DMS 114 small cell lung and in the assay with DMS 273 small cell lung was more than 100 µM in each case.

Consider `CN1CCC(O)C(CNC23CC4CC(CC(C4)C2)C3)C1` (configuration not stated), for which the TGI in the assay with DMS 114 small cell lung, with DMS 273 small cell lung and in the assay with XF 498 CNS was more than 100 µM throughout.
